Test system: E. coli ATCC 25922
Assay: Resistance development assay
Type: cell-based

CNC(C)C1CCC(N)C(OC2C(N)CC(N)C(OC3OCC(C)(O)C(NC)C3O)C2O)O1 (centres unmarked) [gentamicin]
day on which resistance was demonstrated (sequential culturing over 25 days): fifth | fold increase of MIC value (sequential culturing, by the 23rd day): 64 fold
